Assays:
Stromelysin-1 [1] = target: T1, Stromelysin-1 (Homo sapiens, UniProt P08254)
Matrilysin = target: T2, Matrilysin (Homo sapiens, UniProt P09237)
T2 sequence (P09237 whole entry): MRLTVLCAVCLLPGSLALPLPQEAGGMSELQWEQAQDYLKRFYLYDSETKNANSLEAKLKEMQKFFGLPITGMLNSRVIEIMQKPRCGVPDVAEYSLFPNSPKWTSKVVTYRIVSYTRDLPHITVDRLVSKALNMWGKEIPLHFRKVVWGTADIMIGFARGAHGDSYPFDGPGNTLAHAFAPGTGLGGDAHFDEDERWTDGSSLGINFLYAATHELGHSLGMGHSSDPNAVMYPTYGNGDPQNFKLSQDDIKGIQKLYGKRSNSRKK

Stromelysin-1 [2] = target: T1, Stromelysin-1; remark: listed apart in the source
Interstitial collagenase [3] = target: T3, Interstitial collagenase (Homo sapiens, UniProt P03956)
T3 sequence (P03956 whole entry): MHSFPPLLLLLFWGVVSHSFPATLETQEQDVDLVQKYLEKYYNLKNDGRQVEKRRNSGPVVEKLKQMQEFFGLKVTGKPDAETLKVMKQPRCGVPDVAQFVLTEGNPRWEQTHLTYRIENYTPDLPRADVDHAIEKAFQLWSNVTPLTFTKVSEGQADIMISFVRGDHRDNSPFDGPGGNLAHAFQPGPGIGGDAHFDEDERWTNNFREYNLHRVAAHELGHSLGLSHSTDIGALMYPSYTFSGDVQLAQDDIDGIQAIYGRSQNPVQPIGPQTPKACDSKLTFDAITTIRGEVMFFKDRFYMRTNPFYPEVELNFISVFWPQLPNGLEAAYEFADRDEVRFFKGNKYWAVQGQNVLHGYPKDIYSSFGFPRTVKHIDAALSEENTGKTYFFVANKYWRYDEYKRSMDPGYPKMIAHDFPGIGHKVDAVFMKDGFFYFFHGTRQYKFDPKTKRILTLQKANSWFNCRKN

Interstitial collagenase [4] = target: T3, Interstitial collagenase; remark: listed apart in the source

T1 sequence (P08254 whole entry): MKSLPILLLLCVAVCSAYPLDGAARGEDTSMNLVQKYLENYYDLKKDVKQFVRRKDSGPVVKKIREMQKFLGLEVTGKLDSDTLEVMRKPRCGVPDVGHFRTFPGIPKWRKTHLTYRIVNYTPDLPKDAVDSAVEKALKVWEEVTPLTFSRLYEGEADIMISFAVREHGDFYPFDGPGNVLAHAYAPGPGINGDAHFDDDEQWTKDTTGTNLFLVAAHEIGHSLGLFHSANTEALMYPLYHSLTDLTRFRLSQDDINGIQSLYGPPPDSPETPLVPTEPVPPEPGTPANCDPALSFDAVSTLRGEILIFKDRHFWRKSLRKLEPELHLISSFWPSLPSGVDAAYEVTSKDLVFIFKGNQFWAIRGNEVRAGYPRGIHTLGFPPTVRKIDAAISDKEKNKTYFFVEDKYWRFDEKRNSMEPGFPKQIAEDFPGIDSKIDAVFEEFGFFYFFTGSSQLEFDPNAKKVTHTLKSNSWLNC

SMILES	IC50 (Stromelysin-1 [1])	IC50 (Matrilysin)	IC50 (Interstitial collagenase [3])	also measured
CCCCCCCCCCCCCCCC[C@H](CC(=O)NO)C(=O)N[C@@H](Cc1ccccc1)C(=O)NC	0.3 µM			
CNC(=O)[C@@H](NC(=O)[C@H](CCCCCCCCCCCCCCO)CC(=O)NO)C(C)(C)C		0.5 µM		IC50 (Stromelysin-1 [2]): 0.05 µM
CCCCCCCCCCCCCCC[C@H](CC(=O)O)C(=O)N[C@H](C(=O)NC)C(C)(C)C	7 µM			
CCCCCCCC[C@H](CC(=O)NO)C(=O)N[C@H](C(=O)NC)C(C)(C)C		0.5 µM		IC50 (Stromelysin-1 [2]): 0.1 µM
CNC(=O)[C@H](Cc1ccccc1)NC(=O)[C@H](CCCc1ccccc1)CC(=O)NO	0.5 µM	10 µM	1 µM	
CCCCCCCC[C@H](CC(=O)NO)C(=O)N[C@@H](Cc1ccccc1)C(=O)NC	0.45 µM	1 µM	0.15 µM	
CCCCCCCCCCCCC[C@H](CC(=O)NO)C(=O)N[C@H](C(=O)NC)C(C)(C)C		2 µM		IC50 (Stromelysin-1 [2]): 0.06 µM
CCCCCCCCC[C@H](CC(=O)O)C(=O)N[C@@H](Cc1ccccc1)C(=O)NC	20 µM		7 µM	
CCCCCCCC[C@H](CC(=O)O)C(=O)N[C@H](C(=O)NC)C(C)(C)C	30 µM	40 µM		
CCCCCCCC[C@H](CC(=O)O)C(=O)N[C@@H](Cc1ccccc1)C(=O)NC	5 µM			
CCCCCCCCCCCCCC[C@H](CC(=O)O)C(=O)N[C@H](C(=O)NC)C(C)(C)C	4 µM			
CCCCCC[C@H](CC(=O)NO)C(=O)N[C@@H](Cc1ccccc1)C(=O)NC	0.08 µM	2 µM	0.02 µM	
CCCCCCCCCCCCC[C@H](CC(=O)O)C(=O)N[C@H](C(=O)NC)C(C)(C)C	2 µM			
CCCCCCC[C@H](CC(=O)O)C(=O)N[C@@H](Cc1ccccc1)C(=O)NC			7 µM	
CCCCCCCCCCCCCCCC[C@H](CC(=O)NO)C(=O)N[C@H](C(=O)NC)C(C)(C)C				IC50 (Stromelysin-1 [2]): 0.09 µM
CCCCCCCCC[C@H](CC(=O)NO)C(=O)N[C@H](C(=O)NC)C(C)(C)C				IC50 (Interstitial collagenase [4]): 0.375 µM
CCCCCCCCCCCCCCCC[C@H](CC(=O)O)C(=O)N[C@H](C(=O)NC)C(C)(C)C				IC50 (Stromelysin-1 [2]): 10 µM
CCCCCCCCCCCC[C@H](CC(=O)NO)C(=O)N[C@@H](Cc1ccccc1)C(=O)NC	0.04 µM		50 µM	
CCCCCCCCCCCCCC[C@H](CC(=O)NO)C(=O)N[C@@H](Cc1ccccc1)C(=O)NC	0.08 µM			
CCCCCCCCCC[C@H](CC(=O)NO)C(=O)N[C@@H](Cc1ccccc1)C(=O)NC	1 µM	2 µM	0.02 µM	
CCCCCCCCCCCCCCCC[C@H](CC(=O)O)C(=O)N[C@@H](Cc1ccccc1)C(=O)NC	50 µM			
CCCCCCCCCCCCCC[C@H](CC(=O)NO)C(=O)N[C@H](C(=O)NC)C(C)(C)C				IC50 (Stromelysin-1 [2]): 0.07 µM
CCCCCCCCC[C@H](CC(=O)NO)C(=O)N[C@@H](Cc1ccccc1)C(=O)NC	0.03 µM	3 µM	0.5 µM	
CCCCCC[C@H](CC(=O)O)C(=O)N[C@@H](Cc1ccccc1)C(=O)NC			20 µM	
CCCCCCC[C@H](CC(=O)NO)C(=O)N[C@@H](Cc1ccccc1)C(=O)NC	0.04 µM	2 µM	0.4 µM	
CNC(=O)[C@H](Cc1ccccc1)NC(=O)[C@H](CC(C)C)[C@H](CSc1cccs1)C(=O)NO [BATIMASTAT]		0.006 µM		

Source: ChEMBL document CHEMBL1130307, “Inhibition of Matrix Metalloproteinases: An examination of the S1 pocket” (Bioorg Med Chem Lett, 1997)
